Test results taken from ChEMBL document CHEMBL1156375, “Isolation and structure determination of novamethymycin, a new bioactive metabolite of the methymycin biosynthetic pathway in Streptomyces venezuelae” (2001).

Test system: Bacillus subtilis
Assay: Antibacterial activity against Bacillus subtilis ATCC 6633 at 100 ug/disk after 10 hrs by disk diffusion assay
Assay type: functional
Conditions: ATCC 6633, 10 h, read-out: DIZ

## CC[C@H]1OC(=O)[C@H](C)[C@@H](O[C@@H]2O[C@H](C)C[C@H](N(C)C)[C@H]2O)[C@@H](C)C[C@@H](C)C(=O)/C=C/[C@]1(C)O [METHYMYCIN]
  zone of inhibition at 100 µg/disc: 18 mm

## CC[C@H]1OC(=O)[C@H](C)[C@@H](O[C@@H]2O[C@H](C)C[C@H](N(C)C)[C@H]2O)[C@@H](C)C[C@@H](C)C(=O)/C=C/[C@H]1C
  zone of inhibition at 100 µg/disc: 16 mm

## C[C@@H]1C[C@H](N(C)C)[C@@H](O)[C@H](O[C@H]2[C@@H](C)C[C@@H](C)C(=O)/C=C/[C@@H](C)[C@@H]([C@@H](C)O)OC(=O)[C@@H]2C)O1 [NEOMETHYMYCIN]
  zone of inhibition at 100 µg/disc: 20 mm

## C[C@@H]1C[C@H](N(C)C)[C@@H](O)[C@H](O[C@H]2[C@@H](C)C[C@@H](C)C(=O)/C=C/[C@](C)(O)[C@@H]([C@@H](C)O)OC(=O)[C@@H]2C)O1 [NOVAMETHYMYCIN]
  zone of inhibition at 100 µg/disc: 18 mm
